In the NIST ThermoML archive (doi:10.1016/j.jct.2009.06.016):
“And” between values parts separate entries of the source, which are not always exact repeats. Identical values can stand only once.

Test: xn = mol fraction of the nth substance listed
Details: 101 kPa, Liquid, Vibrating tube method

CCCOCC(C)O (stereo not drawn) [1-propoxy-2-propanol] + O
mass density
Details	283.15 K	288.15 K	293.15 K	298.15 K	303.15 K
x1 = 0.001639	999.31 kg/m3	998.703 kg/m3	997.77 kg/m3	996.607 kg/m3	995.166 kg/m3
x1 = 0.003265	999.009 kg/m3	998.36 kg/m3	997.378 kg/m3	996.203 kg/m3	994.729 kg/m3
x1 = 0.01049	998.189 kg/m3	997.309 kg/m3	996.156 kg/m3	994.754 kg/m3	993.101 kg/m3
x1 = 0.01741	997.871 kg/m3	996.708 kg/m3	995.295 kg/m3	993.639 kg/m3	991.738 kg/m3
x1 = 0.02413	997.617 kg/m3	996.172 kg/m3	994.434 kg/m3	992.449 kg/m3	990.242 kg/m3
x1 = 0.02492	997.584 kg/m3	996.099 kg/m3	994.315 kg/m3	992.281 kg/m3	990.035 kg/m3
x1 = 0.03341	997.009 kg/m3	994.916 kg/m3	992.599 kg/m3	990.099 kg/m3	987.376 kg/m3
x1 = 0.0411	995.626 kg/m3	993.032 kg/m3	990.295 kg/m3	987.401 kg/m3	984.348 kg/m3
x1 = 0.04904	993.374 kg/m3	990.531 kg/m3	987.469 kg/m3	984.302 kg/m3	981.013 kg/m3
x1 = 0.05896	990.231 kg/m3	987.111 kg/m3	983.811 kg/m3	980.443 kg/m3	976.913 kg/m3
x1 = 0.06919	987.019 kg/m3	983.629 kg/m3	980.171 kg/m3	976.629 kg/m3	972.832 kg/m3
x1 = 0.07722	984.1 kg/m3	980.908 kg/m3	977.347 kg/m3	973.676 kg/m3	969.873 kg/m3
x1 = 0.08896	980.8 kg/m3	977.203 kg/m3	973.523 kg/m3	969.756 kg/m3	965.792 kg/m3
x1 = 0.09833	977.885 kg/m3	974.328 kg/m3	970.577 kg/m3	966.718 kg/m3	962.723 kg/m3
x1 = 0.1083	975.142 kg/m3	971.439 kg/m3	967.62 kg/m3	963.724 kg/m3	959.684 kg/m3
x1 = 0.1182	972.498 kg/m3	968.762 kg/m3	964.864 kg/m3	960.927 kg/m3	956.826 kg/m3
x1 = 0.1249	970.842 kg/m3	967.03 kg/m3	963.131 kg/m3	959.154 kg/m3	955.036 kg/m3
x1 = 0.1283	969.927 kg/m3	966.142 kg/m3	962.218 kg/m3	958.25 kg/m3	954.135 kg/m3
x1 = 0.1365	967.946 kg/m3	964.14 kg/m3	960.182 kg/m3	956.19 kg/m3	952.054 kg/m3
x1 = 0.1475	965.216 kg/m3	961.573 kg/m3	957.6 kg/m3	953.581 kg/m3	949.414 kg/m3
x1 = 0.1677	961.137 kg/m3	957.197 kg/m3	953.147 kg/m3	949.056 kg/m3	944.898 kg/m3
x1 = 0.1955	955.28 kg/m3	951.825 kg/m3	947.746 kg/m3	943.61 kg/m3	939.419 kg/m3
x1 = 0.2281	950.34 kg/m3	946.219 kg/m3	942.051 kg/m3	937.893 kg/m3	933.693 kg/m3
x1 = 0.2743	943.61 kg/m3	939.47 kg/m3	935.34 kg/m3	931.11 kg/m3	926.81 kg/m3
x1 = 0.3208	937.609 kg/m3	933.429 kg/m3	929.158 kg/m3	924.917 kg/m3	920.58 kg/m3
x1 = 0.3483	934.321 kg/m3	930.247 kg/m3	926.15 kg/m3	921.878 kg/m3	917.532 kg/m3
x1 = 0.3738	931.91 kg/m3	927.69 kg/m3	923.45 kg/m3	919.12 kg/m3	914.74 kg/m3
x1 = 0.4214	927.214 kg/m3	922.877 kg/m3	918.572 kg/m3	914.335 kg/m3	909.931 kg/m3
x1 = 0.4787	922.45 kg/m3	918.2 kg/m3	913.81 kg/m3	909.35 kg/m3	904.97 kg/m3
x1 = 0.5257	918.715 kg/m3	914.413 kg/m3	910.011 kg/m3	905.586 kg/m3	901.122 kg/m3
x1 = 0.548	916.854 kg/m3	912.761 kg/m3	908.503 kg/m3	904.085 kg/m3	899.604 kg/m3
x1 = 0.5771	915.29 kg/m3	910.9 kg/m3	906.52 kg/m3	902.07 kg/m3	897.57 kg/m3
x1 = 0.5977	913.887 kg/m3	909.422 kg/m3	905.093 kg/m3	900.499 kg/m3	896.129 kg/m3
x1 = 0.6247	912.186 kg/m3	907.847 kg/m3	903.425 kg/m3	898.961 kg/m3	894.432 kg/m3
x1 = 0.6264	–	907.647 kg/m3	903.218 kg/m3	898.785 kg/m3	894.261 kg/m3
x1 = 0.6385	911.37 kg/m3	906.945 kg/m3	902.498 kg/m3	897.87 kg/m3	893.542 kg/m3
x1 = 0.672	909.401 kg/m3	905.017 kg/m3	900.577 kg/m3	896.108 kg/m3	891.567 kg/m3
x1 = 0.6758	–	904.871 kg/m3	900.301 kg/m3	895.81 kg/m3	891.293 kg/m3
x1 = 0.6793	909.018 kg/m3	904.571 kg/m3	900.121 kg/m3	895.632 kg/m3	891.142 kg/m3
x1 = 0.7192	906.894 kg/m3	902.407 kg/m3	897.954 kg/m3	893.432 kg/m3	888.909 kg/m3
x1 = 0.7272	906.317 kg/m3	901.907 kg/m3	897.467 kg/m3	892.945 kg/m3	888.391 kg/m3
x1 = 0.7448	905.495 kg/m3	901.061 kg/m3	896.614 kg/m3	892.14 kg/m3	887.56 kg/m3
x1 = 0.7589	904.809 kg/m3	900.364 kg/m3	895.887 kg/m3	891.371 kg/m3	886.848 kg/m3
x1 = 0.7682	903.977 kg/m3	899.934 kg/m3	895.456 kg/m3	890.967 kg/m3	886.382 kg/m3
x1 = 0.7858	903.51 kg/m3	899.08 kg/m3	894.6 kg/m3	890.07 kg/m3	885.47 kg/m3
x1 = 0.7981	902.909 kg/m3	898.495 kg/m3	894.001 kg/m3	889.483 kg/m3	884.923 kg/m3
x1 = 0.8224	901.51 kg/m3	897.287 kg/m3	892.828 kg/m3	888.311 kg/m3	883.721 kg/m3
x1 = 0.8398	901.029 kg/m3	896.637 kg/m3	891.636 kg/m3	887.602 kg/m3	882.984 kg/m3
x1 = 0.8588	900.07 kg/m3	895.641 kg/m3	891.133 kg/m3	886.589 kg/m3	882.007 kg/m3
x1 = 0.8792	898.865 kg/m3	894.921 kg/m3	890.346 kg/m3	885.821 kg/m3	881.196 kg/m3
x1 = 0.8796	899.334 kg/m3	894.851 kg/m3	890.337 kg/m3	885.871 kg/m3	881.204 kg/m3
x1 = 0.8993	898.371 kg/m3	893.936 kg/m3	889.399 kg/m3	884.854 kg/m3	880.259 kg/m3
x1 = 0.9197	897.715 kg/m3 and 897.195 kg/m3	893.212 kg/m3 and 893.204 kg/m3	888.659 kg/m3 and 888.679 kg/m3	884.155 kg/m3 and 884.109 kg/m3	879.548 kg/m3 and 879.479 kg/m3
x1 = 0.9388	896.775 kg/m3	892.326 kg/m3	887.803 kg/m3	883.236 kg/m3	878.623 kg/m3
x1 = 0.9486	896.411 kg/m3	891.949 kg/m3	887.413 kg/m3	882.854 kg/m3	878.219 kg/m3
x1 = 0.9609	895.933 kg/m3	891.451 kg/m3	886.918 kg/m3	882.36 kg/m3	877.745 kg/m3
x1 = 0.9628	896.008 kg/m3	891.604 kg/m3	887.059 kg/m3	882.424 kg/m3	877.865 kg/m3
x1 = 0.9716	895.539 kg/m3	891.059 kg/m3	886.524 kg/m3	881.962 kg/m3	877.362 kg/m3
x1 = 0.9798	895.261 kg/m3	890.77 kg/m3	886.193 kg/m3	881.641 kg/m3	876.998 kg/m3
x1 = 0.9818	895.15 kg/m3	890.664 kg/m3	886.123 kg/m3	881.551 kg/m3	876.955 kg/m3
x1 = 0.9919	894.781 kg/m3	890.294 kg/m3	885.746 kg/m3	881.183 kg/m3	876.546 kg/m3
x1 = 1	894.462 kg/m3	889.963 kg/m3	885.456 kg/m3	880.837 kg/m3	876.279 kg/m3
